Laboratory results published in patent US12599137B2, “Composition for the drying of Tillandsia sp” (priority 2021, dated 2026).

System: Tillandsia sp
Assay: Sampler of 49 cells, each with one specimen of each Tillandsia species, photographic follow-up every 5 days for 30 days
Type: in vivo, Tillandsia aeranthos and Tillandsia recurvata
Text: Next, we proceeded to form a sampler consisting of a base on which a series of wooden slats separated at parallel intervals were placed, to which perpendicular slats were crossed, achieving a plurality of cells for a total of 49 flat cells. One specimen of Tillandsia aeranthos and one of Tillandsia recurvata were placed inside each cell. Each box was designated with a sequential number from No. 1 to No. 49 and a photographic follow-up was taken every 5 days for a total of 30 days.

Structure (SMILES) | dehydration result of Tillandsia sp, summary in words (conclusions on sampler box tests) | optimum concentration of the active ingredient in water (from Examples 3 to 7, FIG. 1) [g/mL]
Cc1c(C(=O)O)c(O)cc2c1C(=O)c1c(O)c([C@@H]3O[C@H](CO)[C@@H](O)[C@H](O)[C@H]3O)c(O)c(O)c1C2=O [carminic acid] | does not dehydrate | –
O=C([O-])O.[Na+] [sodium bicarbonate] | – | 0.07
